Experimental data from patent publication US4156777A, “Process for producing glucopyranose-nitrosourea compounds and novel compounds included therein” (Tokyo Tanabe Company, Limited, priority 1977, dated 1979).

Assays:
leukemia L-1210 = assay: Antitumor activity against leukemia L-1210 implanted in BDF1 mice (ILS, 60 days survivors); format: in vivo
Source text: Test compounds were given to BDF1 mice 24 hrs after implantation of 10^6 cells of leukemia L-1210 in each animal, through single intraperitoneal administration, intraperitoneal administration for 5 successive days, single oral administration or oral administration for 5 successive days, whereupon the increase in life span (referred to as "ILS") and number of 60 days survivors of test animals were estimated, said test of antitumor activity being that according to the method of the National Cancer Center, Tokyo [A. Hoshi et al: Farmashia, 9 (1973), 464]. In the tests, the compounds were dissolved in physiological saline solution just before administration.
^a i.p.: intraperitoneal administration p.o: oral administration
D1 : single administration D1~5 : administration for 5
^b percentage calculated from mean survival time over control
^c survivors/six animals

[1] = test system: various kinds of bacteria; assay: Antibacterial activity (overall statement); format: cell-based; conditions: Table VI
Source text: Using 6DCNU and 6MCαG, minimum inhibiting concentrations (referred to as "MIC") for various kinds of bacteria were estimated by means of the broth-dilution method.

[2] = known compounds, generally seen; cited from earlier work

Compound: O=NN(CCCl)C(=O)NC[C@H]1OC(O)[C@H](O)[C@@H](O)[C@@H]1O (stereo partly drawn) [Example 6DCNU, 3-(D-glucopyranos-6-yl)-1-(2-chloroethyl)-1-nitrosourea]
- ILS (leukemia L-1210; 3.2 mg/kg/day, i.p. D1~5): > 310%
- Survivors (60 days) (leukemia L-1210; 3.2 mg/kg/day, i.p. D1~5): 2/6
- ILS (leukemia L-1210; 6.3 mg/kg/day, i.p. D1~5): > 410%
- Survivors (60 days) (leukemia L-1210; 6.3 mg/kg/day, i.p. D1~5): 4/6
- ILS (leukemia L-1210; 12.5 mg/kg/day, i.p. D1): > 426%
- Survivors (60 days) (leukemia L-1210; 12.5 mg/kg/day, i.p. D1): 4/6
- ILS (leukemia L-1210; 12.5 mg/kg/day, i.p. D1~5): > 520%
- Survivors (60 days) (leukemia L-1210; 12.5 mg/kg/day, i.p. D1~5): 5/6
- ILS (leukemia L-1210; 12.5 mg/kg/day, p.o. D1~5): > 123%
- ILS (leukemia L-1210; 15.0 mg/kg/day, i.p. D1~5): > 650%
- Survivors (60 days) (leukemia L-1210; 15.0 mg/kg/day, i.p. D1~5): 6/6
- ILS (leukemia L-1210; 20.0 mg/kg/day, i.p. D1~5): > 670%
- Survivors (60 days) (leukemia L-1210; 20.0 mg/kg/day, i.p. D1~5): 6/6
- ILS (leukemia L-1210; 25.0 mg/kg/day, i.p. D1): > 561%
- Survivors (60 days) (leukemia L-1210; 25.0 mg/kg/day, i.p. D1): 5/6
- ILS (leukemia L-1210; 25.0 mg/kg/day, i.p. D1~5): > 540%
- Survivors (60 days) (leukemia L-1210; 25.0 mg/kg/day, i.p. D1~5): 5/6
- ILS (leukemia L-1210; 25.0 mg/kg/day, p.o. D1~5): > 260%
- Survivors (60 days) (leukemia L-1210; 25.0 mg/kg/day, p.o. D1~5): 2/6
- ILS (leukemia L-1210; 30.0 mg/kg/day, i.p. D1~5): > 315%
- Survivors (60 days) (leukemia L-1210; 30.0 mg/kg/day, i.p. D1~5): 3/6
- ILS (leukemia L-1210; 35.0 mg/kg/day, p.o. D1~5): > 390%
- Survivors (60 days) (leukemia L-1210; 35.0 mg/kg/day, p.o. D1~5): 3/6
- ILS (leukemia L-1210; 40.0 mg/kg/day, i.p. D1~5): > 225%
- Survivors (60 days) (leukemia L-1210; 40.0 mg/kg/day, i.p. D1~5): 2/6
- ILS (leukemia L-1210; 50.0 mg/kg/day, i.p. D1): > 606%
- Survivors (60 days) (leukemia L-1210; 50.0 mg/kg/day, i.p. D1): 5/6
- ILS (leukemia L-1210; 50.0 mg/kg/day, p.o. D1~5): > 442%
- Survivors (60 days) (leukemia L-1210; 50.0 mg/kg/day, p.o. D1~5): 3/6
- ILS (leukemia L-1210; 70.0 mg/kg/day, i.p. D1): > 321%
- Survivors (60 days) (leukemia L-1210; 70.0 mg/kg/day, i.p. D1): 3/6
- ILS (leukemia L-1210; 70.0 mg/kg/day, p.o. D1~5): > 370%
- Survivors (60 days) (leukemia L-1210; 70.0 mg/kg/day, p.o. D1~5): 3/6
- ILS (leukemia L-1210; 100.0 mg/kg/day, i.p. D1): -3%
- ILS (leukemia L-1210; 100.0 mg/kg/day, p.o. D1~5): > 246%
- Survivors (60 days) (leukemia L-1210; 100.0 mg/kg/day, p.o. D1~5): 2/6
- ILS (leukemia L-1210; 150.0 mg/kg/day, i.p. D1): -10%
- ILS (leukemia L-1210; 200.0 mg/kg/day, i.p. D1): -34%
- antitumor activity, comparison in words (leukemia L-1210; L-1210, BDF1 mice): superior to that of DCNU, GANU and 2MCαG, and is almost equal to that of 6MCαG
- antitumor activity, in words (leukemia L-1210; mouse, in vivo): excellent antitumor activity
- antitumor activity in oral administration, in words (leukemia L-1210; oral administration): high activity equal to that of 6MCαG in oral administration
- antibacterial activity, in words [1]: no substantial antibacterial activity

Compound: CO[C@H]1O[C@H](CNC(=O)N(CCCl)N=O)[C@@H](O)[C@H](O)[C@H]1O [Example 6MCαG, 1-(2-chloroethyl)-3-(methyl α-D-glucopyranos-6-yl)-1-nitrosourea]
- ILS (leukemia L-1210; 2.3 mg/kg/day, i.p. D1~5): > 207%
- Survivors (60 days) (leukemia L-1210; 2.3 mg/kg/day, i.p. D1~5): 1/6
- ILS (leukemia L-1210; 3.2 mg/kg/day, i.p. D1~5): > 521%
- Survivors (60 days) (leukemia L-1210; 3.2 mg/kg/day, i.p. D1~5): 4/6
- ILS (leukemia L-1210; 3.2 mg/kg/day, p.o. D1~5): 38%
- ILS (leukemia L-1210; 4.5 mg/kg/day, i.p. D1~5): > 607%
- Survivors (60 days) (leukemia L-1210; 4.5 mg/kg/day, i.p. D1~5): 5/6
- ILS (leukemia L-1210; 6.3 mg/kg/day, i.p. D1): > 241%
- Survivors (60 days) (leukemia L-1210; 6.3 mg/kg/day, i.p. D1): 3/6
- ILS (leukemia L-1210; 6.3 mg/kg/day, i.p. D1~5): > 722%
- Survivors (60 days) (leukemia L-1210; 6.3 mg/kg/day, i.p. D1~5): 6/6
- ILS (leukemia L-1210; 6.3 mg/kg/day, p.o. D1~5): > 397%
- Survivors (60 days) (leukemia L-1210; 6.3 mg/kg/day, p.o. D1~5): 3/6
- ILS (leukemia L-1210; 9.0 mg/kg/day, i.p. D1): > 604%
- Survivors (60 days) (leukemia L-1210; 9.0 mg/kg/day, i.p. D1): 5/6
- ILS (leukemia L-1210; 9.0 mg/kg/day, i.p. D1~5): > 700%
- Survivors (60 days) (leukemia L-1210; 9.0 mg/kg/day, i.p. D1~5): 6/6
- ILS (leukemia L-1210; 9.0 mg/kg/day, p.o. D1~5): > 417%
- Survivors (60 days) (leukemia L-1210; 9.0 mg/kg/day, p.o. D1~5): 3/6
- ILS (leukemia L-1210; 12.5 mg/kg/day, i.p. D1): > 619%
- Survivors (60 days) (leukemia L-1210; 12.5 mg/kg/day, i.p. D1): 6/6
- ILS (leukemia L-1210; 12.5 mg/kg/day, i.p. D1~5): > 722%
- Survivors (60 days) (leukemia L-1210; 12.5 mg/kg/day, i.p. D1~5): 6/6
- ILS (leukemia L-1210; 12.5 mg/kg/day, p.o. D1~5): > 700%
- Survivors (60 days) (leukemia L-1210; 12.5 mg/kg/day, p.o. D1~5): 6/6
- ILS (leukemia L-1210; 18.0 mg/kg/day, i.p. D1): > 632%
- Survivors (60 days) (leukemia L-1210; 18.0 mg/kg/day, i.p. D1): 6/6
- ILS (leukemia L-1210; 18.0 mg/kg/day, i.p. D1~5): > 493%
- Survivors (60 days) (leukemia L-1210; 18.0 mg/kg/day, i.p. D1~5): 4/6
- ILS (leukemia L-1210; 18.0 mg/kg/day, p.o. D1~5): > 679%
- Survivors (60 days) (leukemia L-1210; 18.0 mg/kg/day, p.o. D1~5): 6/6
- ILS (leukemia L-1210; 25.0 mg/kg/day, i.p. D1): > 625%
- Survivors (60 days) (leukemia L-1210; 25.0 mg/kg/day, i.p. D1): 6/6
- ILS (leukemia L-1210; 25.0 mg/kg/day, i.p. D1~5): > 393%
- Survivors (60 days) (leukemia L-1210; 25.0 mg/kg/day, i.p. D1~5): 3/6
- ILS (leukemia L-1210; 25.0 mg/kg/day, p.o. D1~5): 233%
- ILS (leukemia L-1210; 35.0 mg/kg/day, i.p. D1): > 632%
- Survivors (60 days) (leukemia L-1210; 35.0 mg/kg/day, i.p. D1): 6/6
- ILS (leukemia L-1210; 35.0 mg/kg/day, i.p. D1~5): > 157%
- Survivors (60 days) (leukemia L-1210; 35.0 mg/kg/day, i.p. D1~5): 1/6
- ILS (leukemia L-1210; 50.0 mg/kg/day, i.p. D1): > 388%
- Survivors (60 days) (leukemia L-1210; 50.0 mg/kg/day, i.p. D1): 3/6
- diabetogenic activity, decreasing order [2]: SZ>DCNU>GANU> 2MCαG≈6MCαG
